The source of these data is patent publication US9546157B2, “Asymmetric piperidinyl-substituted ureas as medicines” (Helsinn Healthcare SA, priority 2014, dated 2017).

The target in data set [1] is T1, GHSR1a (Homo sapiens, UniProt Q92847).
T1 construct: expressed in transfected cells; host or cells: HEK293
The data set is described as follows: Calcium FLIPR assay, GHSR-1a antagonism (reduction of ghrelin response). The format is cell-based. The settings on record: HEK293/GHSR1a cells, ghrelin 10 nM. The gist of the method: (§1)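 Relative fluorescence read-out (FLIPR) of intracellular calcium in HEK293/GHSR1a cells. For antagonist mode, compound and 10 nM ghrelin were co-added at t=20 sec, and inhibition of the ghrelin response over 2 minutes gave IC50. Agonist mode: compound alone at t=20 sec, response tracked 2 minutes; EC50 from dose-response.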

Data set [2] is described as follows: Metabolic Stability (H = Human). The data set is classed as in vitro ADME.
Data set [3] concerns the target T1, GHSR1a. The data set is described as follows: Calcium FLIPR assay, GHSR-1a agonism. The format is cell-based. The settings on record: HEK293/GHSR1a cells. On the set-up: Emax: unit not given here. The gist of the method:
as §1

Data set [4] in a line: Metabolic Stability (M = Mouse). The format is in vitro ADME.

Where only a bound is given, the exact number is not on record here.

T1 sequence (Q92847 whole entry): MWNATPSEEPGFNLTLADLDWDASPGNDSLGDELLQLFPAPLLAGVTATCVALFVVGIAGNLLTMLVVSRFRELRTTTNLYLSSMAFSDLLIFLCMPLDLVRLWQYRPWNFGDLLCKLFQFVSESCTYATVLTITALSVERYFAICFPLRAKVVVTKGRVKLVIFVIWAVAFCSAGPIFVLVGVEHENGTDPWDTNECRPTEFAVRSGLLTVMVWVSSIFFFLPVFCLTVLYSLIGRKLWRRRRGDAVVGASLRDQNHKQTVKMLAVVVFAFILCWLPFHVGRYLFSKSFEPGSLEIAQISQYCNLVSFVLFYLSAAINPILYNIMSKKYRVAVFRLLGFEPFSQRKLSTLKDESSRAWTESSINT

`CC(NC(=O)N(C)C1CCN(C)CC1)c1ccc(-c2cnn(C)c2)c(Cl)c1Cl` (stereo not shown) [Compound H0501, 3-(1-(2,3-dichloro-4-(1-methyl-1H-pyrazol-4-yl)phenyl)ethyl)-1-methyl-1-(1-methylpiperidin-4-yl)urea]: the IC50 at GHSR1a [1] was 13 nM. The “Metabolic Stability H” value in data set [2] was “High H High M”. At GHSR1a [3], the EC50 is 22 nM. For the same molecule, in data set [4], the “Metabolic Stability M” value is on record as “High H High M”.

For the molecule `CC(NC(=O)N(C)C1CCN(C)CC1)c1ccc(-c2ccoc2)c(Cl)c1Cl` (stereo not shown) [Compound H0507, 3-(1-(2,3-dichloro-4-(furan-3-yl)phenyl)ethyl)-1-methyl-1-(1-methylpiperidin-4-yl)urea], the IC50 at GHSR1a [1] came out at 8 nM. In addition, the “Metabolic Stability H” value in data set [2] was “High H High M”. For the same molecule, the EC50 on GHSR1a [3] turned out to be 12 nM. For the same molecule, in data set [4], the “Metabolic Stability M” value was “High H High M”.

Take `COc1ccc(-c2ccc(C(C)NC(=O)N(C)C3CCN(C)CC3)c(Cl)c2Cl)cc1` (stereo not shown) [Compound H0508, 3-(1-(2,3-dichloro-4′-methoxy-[1,1′-biphenyl]-4-yl)ethyl)-1-methyl-1-(1-methylpiperidin-4-yl)urea]: the IC50 on GHSR1a [1] came out at 76 nM. Moreover, the “Metabolic Stability H” value in data set [2] is “Medium”. For the same molecule, at GHSR1a [3], the EC50 is more than 30000 nM. Moreover, the “Metabolic Stability M” value in data set [4] is given as “High”.

Turning to `CC(NC(=O)N(C)C1CCN(C)CC1)c1ccc(-c2cnc3[nH]ccc3c2)c(Cl)c1Cl` (stereo not shown) [Compound H0514], the IC50 on GHSR1a [1] was found to be 16 nM. The “Metabolic Stability H” value in data set [2] is “Medium H Medium M”. In addition, the EC50 at GHSR1a [3] was 38 nM. Besides, the “Metabolic Stability M” value in data set [4] is given as “Medium H Medium M”.

Consider `CC(NC(=O)N(C)C1CCN(C)CC1)c1ccc(I)c(Cl)c1Cl` (stereo not shown) [Compound H0519, 3-(1-(2,3-dichloro-4-iodophenyl)ethyl)-1-methyl-1-(1-methylpiperidin-4-yl)urea], for which the IC50 on GHSR1a [1] was 3 nM. Besides, in data set [2], the “Metabolic Stability H” value is listed as “Medium H Medium M”. At GHSR1a [3], the EC50 was found to be 6 nM. Also, in data set [4], the “Metabolic Stability M” value is “Medium H Medium M”.

In the case of `CC(NC(=O)N(C)C1CCN(C)CC1C)c1ccc(-c2cccnc2)c(Cl)c1Cl` (stereo not shown) [Compound H0527, 3-(1-(2,3-dichloro-4-(pyridin-3-yl)phenyl)ethyl)-1-(1,3-dimethylpiperidin-4-yl)-1-methylurea], the IC50 at GHSR1a [1] turned out to be 19 nM. For the same molecule, the “Metabolic Stability H” value in data set [2] was “Medium H Medium M”. Further, the EC50 on GHSR1a [3] was more than 30000 nM. In data set [4], the “Metabolic Stability M” value is on record as “Medium H Medium M”.

As to `CC(NC(=O)N(C)C1CCN(C)CC1C)c1ccc(-c2cn[nH]c2)c(Cl)c1Cl` (stereo not shown) [Compound H0528, 3-(1-(2,3-dichloro-4-(1H-pyrazol-4-yl)phenyl)ethyl)-1-(1,3-dimethylpiperidin-4-yl)-1-methylurea], the IC50 on GHSR1a [1] stood at 34 nM. In addition, the “Metabolic Stability H” value in data set [2] is recorded as “Medium H Medium M”. The EC50 at GHSR1a [3] was more than 30000 nM. For the same molecule, in data set [4], the “Metabolic Stability M” value is “Medium H Medium M”.

For the molecule `CC(NC(=O)N(C)C1CCN(C)C1)c1ccc(-c2cn[nH]c2)c(Cl)c1Cl` (stereo not shown) [Compound H0529, 3-(1-(2,3-dichloro-4-(1H-pyrazol-4-yl)phenyl)ethyl)-1-methyl-1-(1-methylpyrrolidin-3-yl)urea], the IC50 at GHSR1a [1] came out at 12 nM. In addition, the “Metabolic Stability H” value in data set [2] is listed as “Medium”. Moreover, the EC50 on GHSR1a [3] is more than 30000 nM. In data set [4], the “Metabolic Stability M” value was “Poor”.

With `CC(NC(=O)N(C)C1CCN(C)C1)c1ccc(-c2ccsc2)c(Cl)c1Cl` (stereo not shown) [Compound H0531, 3-(1-(2,3-dichloro-4-(thiophen-3-yl)phenyl)ethyl)-1-methyl-1-(1-methylpyrrolidin-3-yl)urea], at GHSR1a [1], the IC50 came to 4 nM. The “Metabolic Stability H” value in data set [2] was “Medium”. For the same molecule, the EC50 on GHSR1a [3] was 5 nM. For the same molecule, the “Metabolic Stability M” value in data set [4] is reported as “Poor”.

On to `COC(=O)c1ccc(CN(C(=O)NC(C)c2ccc(-c3cn[nH]c3)c(Cl)c2Cl)C2CCN(C)CC2)cc1` (stereo not shown) [Compound H0537, methyl 4-((3-(1-(2,3-dichloro-4-(1H-pyrazol-4-yl)phenyl)ethyl)-1-(1-methylpiperidin-4-yl)ureido)methyl)benzoate], for which the IC50 on GHSR1a [1] was 13 nM. The “Metabolic Stability H” value in data set [2] was “Poor H Poor M”. For the same molecule, at GHSR1a [3], the EC50 is more than 30000 nM. The “Metabolic Stability M” value in data set [4] was “Poor H Poor M”.

Take `CC(NC(=O)N(C)C1CCN(C)CC1)c1ccc(-c2c[nH]cn2)c(Cl)c1Cl` (stereo not shown) [Compound H0542, 3-(1-(2,3-dichloro-4-(1H-imidazol-4-yl)phenyl)ethyl)-1-methyl-1-(1-methylpiperidin-4-yl)urea]: the IC50 at GHSR1a [1] was 18 nM. The “Metabolic Stability H” value in data set [2] was “High H High M”. Further, the EC50 on GHSR1a [3] was determined as 15 nM. Moreover, the “Metabolic Stability M” value in data set [4] is given as “High H High M”.

On to `CC(NC(=O)N(Cc1ccc(CO)cc1)C1CCN(C)CC1)c1ccc(-c2cccnc2)c(Cl)c1Cl` (stereo not shown) [Compound H0546, 3-(1-(2,3-dichloro-4-(pyridin-3-yl)phenyl)ethyl)-1-(4-(hydroxymethyl)benzyl)-1-(1-methylpiperidin-4-yl)urea], for which the IC50 at GHSR1a [1] is 8 nM. Further, in data set [2], the “Metabolic Stability H” value is listed as “Medium H Medium M”. In addition, at GHSR1a [3], the EC50 was more than 30000 nM. For the same molecule, in data set [4], the “Metabolic Stability M” value is “Medium H Medium M”.

As for `CC(NC(=O)N(C)C1CCN(C)CC1)c1ccc(-n2ccnn2)c(Cl)c1Cl` (stereo not shown) [Compound H0565, 3-(1-(2,3-dichloro-4-(1H-1,2,3-triazol-1-yl)phenyl)ethyl)-1-methyl-1-(1-methylpiperidin-4-yl)urea], the IC50 at GHSR1a [1] turned out to be 28 nM. Besides, the “Metabolic Stability H” value in data set [2] is recorded as “High H High M”. Also, the EC50 at GHSR1a [3] turned out to be 30 nM. Moreover, the “Metabolic Stability M” value in data set [4] was “High H High M”.

As for `CC(NC(=O)N(C)C1CCN(C)CC1)c1ccc(-c2cscn2)c(Cl)c1Cl` (stereo not shown) [Compound H0568, 3-(1-(2,3-dichloro-4-(thiazol-4-yl)phenyl)ethyl)-1-methyl-1-(1-methylpiperidin-4-yl)urea], the IC50 on GHSR1a [1] was 9 nM. The “Metabolic Stability H” value in data set [2] is given as “High H High M”. Moreover, on GHSR1a [3], the EC50 was 4 nM. For the same molecule, in data set [4], the “Metabolic Stability M” value was “High H High M”.

Turning to `CC(NC(=O)N(C)C1CCN(C)CC1)c1ccc(-c2cocn2)c(Cl)c1Cl` (stereo not shown) [Compound H0569, 3-(1-(2,3-dichloro-4-(oxazol-4-yl)phenyl)ethyl)-1-methyl-1-(1-methylpiperidin-4-yl)urea], on GHSR1a [1], the IC50 is 87 nM. Moreover, the “Metabolic Stability H” value in data set [2] was “Medium H Medium M”. On GHSR1a [3], the EC50 was more than 30000 nM. Also, in data set [4], the “Metabolic Stability M” value is “Medium H Medium M”.

As for `CC(NC(=O)N(C)C1CCN(C)CC1)c1ccc(-c2ccsc2)c2ccccc12` (stereo not shown) [Compound H0574, 1-methyl-1-(1-methylpiperidin-4-yl)-3-(1-(4-(thiophen-3-yl)naphthalen-1-yl)ethyl)urea], the IC50 on GHSR1a [1] turned out to be 67 nM. For the same molecule, in data set [2], the “Metabolic Stability H” value is listed as “Medium H Medium M”. In addition, on GHSR1a [3], the EC50 was found to be 81 nM and the Emax is recorded as 2489. The “Metabolic Stability M” value in data set [4] is given as “Medium H Medium M”.

In the case of `CC(NC(=O)N(C)C1CCN(C)CC1)c1ccc(-c2cccs2)c2ccccc12` (stereo not shown) [Compound H0575, 1-methyl-1-(1-methylpiperidin-4-yl)-3-(1-(4-(thiophen-2-yl)naphthalen-1-yl)ethyl)urea], the IC50 at GHSR1a [1] was found to be 32 nM. Further, the “Metabolic Stability H” value in data set [2] is “Medium H Medium M”. Further, at GHSR1a [3], the EC50 was determined as 28 nM and the Emax is 3533. Also, the “Metabolic Stability M” value in data set [4] is reported as “Medium H Medium M”.

As for `CC(NC(=O)N(C)C1CCN(C)CC1)c1cnc(Cl)c(Cl)c1Cl` (stereo not shown) [Compound H0876, 1-methyl-1-(1-methylpiperidin-4-yl)-3-(1-(4,5,6-trichloropyridin-3-yl)ethyl)urea], the IC50 at GHSR1a [1] turned out to be 130 nM. In addition, the EC50 at GHSR1a [3] is more than 30000 nM.

With `CC(NC(=O)N(C)C1CCN(C)CC1)c1cnc(-c2cnccn2)c(Cl)c1Cl` (stereo not shown) [Compound H0881, 3-(1-(4,5-dichloro-6-(pyrazin-2-yl)pyridin-3-yl)ethyl)-1-methyl-1-(1-methylpiperidin-4-yl)urea], at GHSR1a [1], the IC50 was found to be 810 nM. For the same molecule, the EC50 at GHSR1a [3] was more than 30000 nM.

As for `CC(NC(=O)N(C)C1CCN(C)CC1)c1cnc(C#CC2CC2)c(Cl)c1Cl` (stereo not shown) [Compound H0884, 3-(1-(4,5-dichloro-6-(cyclopropylethynyl)pyridin-3-yl)ethyl)-1-methyl-1-(1-methylpiperidin-4-yl)urea], at GHSR1a [1], the IC50 came to 197 nM. In addition, at GHSR1a [3], the EC50 was more than 30000 nM.

Take `CCC(NC(=O)N(CC)C1CCN(C)CC1)c1ccc(-c2cnccn2)c(Cl)c1Cl` (stereo not shown) [Compound H0896, 3-(1-(2,3-dichloro-4-(pyrazin-2-yl)phenyl)propyl)-1-ethyl-1-(1-methylpiperidin-4-yl)urea]: the IC50 at GHSR1a [1] turned out to be 7 nM. In addition, the EC50 at GHSR1a [3] is more than 30000 nM.

For `CC(NC(=O)N(C)C1CCN(C)CC1)c1ccc(-c2cncc(C(F)(F)F)n2)c(Cl)c1Cl` (stereo not shown) [Compound H0910, 3-(1-(2,3-dichloro-4-(6-(trifluoromethyl)pyrazin-2-yl)phenyl)ethyl)-1-methyl-1-(1-methylpiperidin-4-yl)urea], at GHSR1a [1], the IC50 worked out at 125 nM. For the same molecule, on GHSR1a [3], the EC50 is 19 nM and the Emax is 1359.

Turning to `COC(=O)C(NC(=O)N(C)C1CCN(C)CC1)c1ccc(-c2cnccn2)c(Cl)c1Cl` (stereo not shown) [Compound H0922, methyl 2-(2,3-dichloro-4-(pyrazin-2-yl)phenyl)-2-(3-methyl-3-(1-methylpiperidin-4-yl)ureido)acetate], the IC50 on GHSR1a [1] came to 2800 nM. At GHSR1a [3], the EC50 was more than 30000 nM.

For `CN1CCC(N(C)C(=O)NC(CO)c2ccc(-c3cnccn3)c(Cl)c2Cl)CC1` (stereo not shown) [Compound H0924, 3-(1-(2,3-dichloro-4-(pyrazin-2-yl)phenyl)-2-hydroxyethyl)-1-methyl-1-(1-methylpiperidin-4-yl)urea], on GHSR1a [1], the IC50 came out at 300 nM. For the same molecule, the EC50 at GHSR1a [3] was more than 30000 nM.
